Assay [1] has as its system paw of rats. In words: Pharmacological test for anti-inflammatory properties (carrageenan rat paw swelling). In kind it is in vivo. The settings on record: oral 1 hour before carrageenan (0.05 ml of 1%), swelling 4 hours after injection by plethysmography, dose not given. The procedure:
1. Pharmacological test for anti-inflammatory properties.
The compounds to be tested are given as freshly prepared solutions or suspensions by oral route 1 hour before injecting the paw of rats with carrageenan which is a known inflammatory agent.
The inflammatory agent (carrageenan) either in solution or suspension is then injected into the plantar tissue of the right hind paw of each rat, the left paw remaining untreated and serving as control. Each animal receives, for example, 0.05 ml of an aqueous solution containing 1% by weight of carrageenan and 0.9% of sodium chloride.
4 hours after the injection of the inflammatory agent, the importance of swelling is determined by plethysmography and is expressed as a percent of the volume of the control paw.
The anti-inflammatory effect expressed as a percentage of inhibition is obtained by comparison between rats treated with the anti-inflammatory compound and a control group of rats.

The test system of assay [2] is rats. The experiment in a line: Pharmacological test for diuretic properties (urine volume). In kind it is in vivo. The note with it: 50 mg/kg gastric gavage, 25 ml/kg saline s.c., urine collected 4 hours, ml/kg of body weight. The procedure: 2. Pharmacological tests for diuretic properties Lots of 3 rats weighting 250-300 g have been constituted at random, each of them being submitted to the same treatment. The compound to be tested was administered by .[.gastric gavage at a dose of 50 ml/kg as a solution or a.]. .Iadd.gastric gavage at a dose of 50 mg/kg as a solution or a .[…].suspension in water containing 0.45% of methylcellulose (which is an inert mucilaginous substance). Control animals received only distilled water as a placebo. At the same time, all the animals received 25 ml/kg of physiological saline by subcutaneous injection. The rats were then placed in metabolic cages, each cage containing 3 animals receiving the same treatment. The urines have been collected during 4 hours. […] The diuresis is expressed in ml/kg of body weight.

Molecules are shown by their SMILES.

On to `CCCCNC(=O)NS(=O)(=O)c1cnccc1NCc1ccco1` [JDL 485, 3-butylcarbamylsufonamido-4-methyl-furylaminopyridine], for which the “% inhibition of acute oedema” value in assay [1] is given as 15.2%. In addition, the Diuresis in assay [2] was found to be 51.3 mL/kg.

In the case of `CCCCNC(=O)NS(=O)(=O)c1cnccc1Nc1ccc(Cl)c(C(F)(F)F)c1` [JDL 486, 3-butylcarbamylsulfonamido-4-(3'-trifluoromethyl-4'-chloro)-phenyl aminopyridine], the “% inhibition of acute oedema” value in assay [1] is 16.8%. The molecule further gave a Diuresis in assay [2] of 3.6 mL/kg.

Regarding `CC(C)NC(=O)NS(=O)(=O)c1cnccc1Nc1ccc(Cl)c(C(F)(F)F)c1` [JDL 487, 3-isopropylcarbamylsulfonamido-4-(3'-trifluoromethyl-4'-chloro)-phenylaminopyridine], in assay [1], the “% inhibition of acute oedema” value came to 20.8%. This molecule also had a Diuresis in assay [2] of 10.5 mL/kg.

Turning to `CCNC(=O)NS(=O)(=O)c1cnccc1Nc1ccc(Cl)c(C(F)(F)F)c1` [JDL 488, 3-ethylcarbamylsulfonamido-4-(3'-trifluoromethyl-4'-chloro)-phenyl-aminopyridine], in assay [1], the “% inhibition of acute oedema” value turned out to be 24.8%. Besides, the Diuresis in assay [2] came to 16.4 mL/kg.

On to `CCCCNC(=O)NS(=O)(=O)c1cnccc1NC(C)C` [JDL 491, 3-butylcarbamylsulfonamido-4-isopropylaminopyridine], for which, in assay [1], the “% inhibition of acute oedema” value is on record as 88.0%. The molecule also showed a Diuresis in assay [2] of 25.1 mL/kg.

In the case of `CNC(=O)NS(=O)(=O)c1cnccc1NCc1ccco1` [JDL 492, 3-methylcarbamylsulfonamido-4-methyl-furylaminopyridine], the “% inhibition of acute oedema” value in assay [1] came out at 88.8%. Besides, in assay [2], the Diuresis amounted to 14.9 mL/kg.

In the case of `CNC(=O)NS(=O)(=O)c1cnccc1Nc1cccc(OC)c1` [JDL 493, 3-methylcarbamylsulfonamido-4-(3'-methoxy)-phenylaminopyridine], in assay [1], the “% inhibition of acute oedema” value was 59.2%. This molecule also had a Diuresis in assay [2] of 50.7 mL/kg.

Consider `CNC(=O)NS(=O)(=O)c1cnccc1Nc1cccc(C)c1` [JDL 494, 3-methylcarbamylsulfonamido-4-(3'-methyl)-phenylaminopyridine], for which the “% inhibition of acute oedema” value in assay [1] is reported as 85.6%. The Diuresis in assay [2] stood at 75.9 mL/kg.

As for `CNC(=O)NS(=O)(=O)c1cnccc1Nc1cccc(F)c1` [JDL 495, 3-methylcarbamylsulfonamido-4-(3'-fluoro)-phenylaminopyridine], in assay [1], the “% inhibition of acute oedema” value stood at 66.2%. In assay [2], the Diuresis stood at 76.3 mL/kg.

For `CNC(=O)NS(=O)(=O)c1cnccc1Nc1cccc(Br)c1` [JDL 496, 3-methylcarbamylsulfonamido-4-(3'-bromo)-phenylaminopyridine], the “% inhibition of acute oedema” value in assay [1] is reported as 70.4%. For the same molecule, in assay [2], the Diuresis was 72.1 mL/kg.

For the molecule `CNC(=O)NS(=O)(=O)c1cncc(C)c1Nc1cccc(Cl)c1` [JDL 501, 3-methylcarbamylsulfonamido-4-(3'-chloro)-phenylamino-5-methylpyridine], in assay [1], the “% inhibition of acute oedema” value stood at 39.2%. In assay [2], this molecule showed a Diuresis of 35.9 mL/kg.

For `Cc1cncc(S(=O)(=O)NC(=O)NC(C)C)c1Nc1cccc(Cl)c1` [JDL 503, 3-isopropylcarbamylsulfonamido-4-(3'-chloro)-phenylamino-5-methylpyridine], the “% inhibition of acute oedema” value in assay [1] turned out to be 71.2%. In assay [2], this molecule had a Diuresis of 48.9 mL/kg.

For `CNC(=O)NS(=O)(=O)c1cnccc1Nc1cccc([N+](=O)[O-])c1` [JDL 504, 3-methylcarbamylsulfonamido-4-(3'-nitro)-phenylaminopyridine], the “% inhibition of acute oedema” value in assay [1] came to 43.0%. This molecule returned a Diuresis in assay [2] of 17.2 mL/kg.

Consider `CC(C)NC(=O)NS(=O)(=O)c1cnccc1Nc1cccc([N+](=O)[O-])c1` [JDL 505, 3-isopropylcarbamylsulfonamido-4-(3'-nitro)-phenylaminopyridine], for which, in assay [1], the “% inhibition of acute oedema” value was determined as 68.0%. Also, the Diuresis in assay [2] was determined as 56.3 mL/kg.

Consider `CCNC(=O)NS(=O)(=O)c1cnccc1Nc1cccc(CC)c1` [JDL 511, 3-ethylcarbamylsulfonamido-4-(3'-ethyl)-phenylaminopyridine], for which, in assay [1], the “% inhibition of acute oedema” value is reported as 72.0%. In assay [2], this molecule displayed a Diuresis of 66.4 mL/kg.

As for `CCc1cccc(Nc2ccncc2S(=O)(=O)NC(=O)NC(C)C)c1` [JDL 512, 3-isopropylcarbamylsulfonamido-4-(3'-ethyl)-phenylaminopyridine], the “% inhibition of acute oedema” value in assay [1] worked out at 78.7%. In assay [2], the Diuresis was 65.9 mL/kg.
